Source: publication PMC13266984 (Journal of medicinal chemistry, 2026)
“And” between values parts separate entries of the source, which are not always exact repeats. Equal values may be shown once.

Experiments:
[1] = pION μSOL kinetic aqueous solubility; assay type: physicochemical; settings: in words; pH7.4
[2] = Metabolic stability in rat liver microsome fractions; assay type: in vitro ADME; settings: in words
OE19 (3A1) = target: T1, OE19 (3A1) (Homo sapiens, UniProt P30838); assay: Cellular ALDEFLUOR assay in OE19 cells (preferential ALDH3A1 expression); settings: for Cell_Efficacy: Table S5, OE19 cells; for Cell_CC-v2: Table S5, cellular curve class; for IC50: cellular IC50 (Aldefluor), OE19 cells
T1 sequence (P30838 1-453): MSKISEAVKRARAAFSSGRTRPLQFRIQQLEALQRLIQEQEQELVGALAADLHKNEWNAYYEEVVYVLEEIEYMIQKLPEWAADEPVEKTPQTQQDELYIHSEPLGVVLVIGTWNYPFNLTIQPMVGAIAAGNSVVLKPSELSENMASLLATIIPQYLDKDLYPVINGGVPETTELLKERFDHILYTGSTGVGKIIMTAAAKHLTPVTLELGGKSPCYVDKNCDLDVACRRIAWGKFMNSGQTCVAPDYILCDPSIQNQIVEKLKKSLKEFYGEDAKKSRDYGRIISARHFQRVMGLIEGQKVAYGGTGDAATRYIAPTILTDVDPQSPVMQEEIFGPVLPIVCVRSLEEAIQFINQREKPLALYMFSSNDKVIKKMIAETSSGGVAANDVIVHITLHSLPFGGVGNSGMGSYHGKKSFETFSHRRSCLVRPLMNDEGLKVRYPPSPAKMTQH

Human ALDH3A1 = target: T2, Human ALDH3A1 (Homo sapiens, UniProt P30838); assay: ALDH3A1 biochemical assay (benzaldehyde/NADP+, diaphorase-resazurin readout, 1,536-well); settings: for IC50Ratio: 20X[SUB] vs 1X[SUB] benzaldehyde; for Efficacy: Table S5, biochemical; for CC-v2: Table S5, biochemical curve class; for LLE: Table S7, pAC50 − cLogP; for inhibition mechanism (benzaldehyde substrate shift): retested at 4,000 μM benzaldehyde
T2 sequence (P30838 1-453): T1 sequence (P30838 1-453)

[3] = 20X[SUB] IC50 [µM], benzaldehyde 4,000 µM (~20× Km), NADP+ 1,000 µM

Compound: Cc1nc(-c2cccc(CNC(=O)c3csc(N4CCN(c5cccc(C(F)(F)F)c5)CC4)n3)c2)cs1 [Compound 14]
- kinetic aqueous solubility [1]: limited kinetic aqueous solubility
- microsomal stability [2]: only moderate microsomal stability
- AC50 (OE19 (3A1)): 3.8 nM
- Cell_Efficacy (OE19 (3A1)): -94.02
- Cell_CC-v2 (OE19 (3A1)): -1.1
- IC50 (OE19 (3A1)): 4 nM and 3.84 nM and ~4 nM
- AC50 (Human ALDH3A1): 31.6 nM
- IC50 (Human ALDH3A1; [3]): 1 µM
- IC50Ratio (Human ALDH3A1): 32
- IC50 (Human ALDH3A1; ALDH3A1 biochemical IC50): 0.0316 µM and 0.032 µM and ~0.032 µM
- Efficacy (Human ALDH3A1): -99.22
- CC-v2 (Human ALDH3A1): -1.1
- LLE (Human ALDH3A1): 1.65
- inhibition mechanism (benzaldehyde substrate shift) (Human ALDH3A1): consistent with substrate-competitive inhibition

Compound: O=C(NCc1cccc(C2CC2)c1)c1csc(N2CCN(c3cccc(C(F)(F)F)c3)CC2)n1 [Compound 13]
- kinetic aqueous solubility [1]: limited kinetic aqueous solubility
- AC50 (OE19 (3A1)): 13.6 nM
- Cell_Efficacy (OE19 (3A1)): -65.41
- Cell_CC-v2 (OE19 (3A1)): -1.2
- IC50 (OE19 (3A1)): 13.6 nM and 14 nM and ~14 nM
- AC50 (Human ALDH3A1): 1.1 nM
- IC50 (Human ALDH3A1; [3]): 0.0316 µM
- IC50Ratio (Human ALDH3A1): 28
- IC50 (Human ALDH3A1; ALDH3A1 biochemical IC50): 0.001 µM
- Efficacy (Human ALDH3A1): -107.26
- CC-v2 (Human ALDH3A1): -1.1
- LLE (Human ALDH3A1): 3.663
- inhibition mechanism (benzaldehyde substrate shift) (Human ALDH3A1): consistent with substrate-competitive inhibition
